Data: patent US9023813B2 (Nutek Pharma Ltd., priority 2012, dated 2015)
Values joined by “and” are separate entries in the source; they are usually repeats but may differ in a detail not shown here. Equal entries are not always repeated. “Also recorded” adds a separate entry of the source.

Legend:
[1] = cited from earlier work
male Sprague Dawley rats = experiment: Clinical observations of rats during administration of propofol analogs in the pharmacokinetics study
Method: (§1) Blood samples were to be taken pre-dose, during dose and post dose at designated intervals, with the blood quickly processed and stored at −70° C. until analysis.
(§2) Formulations were prepared on the morning of the dosing day and each was passed through a 0.22 μm filter prior to being administered to animals. A standard dose of 0.168 mmol/Kg per analog was administered to each of the rats. […] Analog stability in the formulations was verified by preparing each formulation and harvesting 200 μL aliquots at 0, 1, 2 and 8 hr while standing at room temperature. After harvesting, each sample was immediately frozen in dry ice until analysis; concentrations of test compounds in the samples were examined by HPLC-UV.
(§3) The animals were surgically prepared with indwelling cannula, double cannulation in carotid artery and jugular vein for i.v. infusion. The anesthetic pentobarbital was used during the surgery, and the animals were allowed to recover 3-5 days after surgery before the formulation was dosed. The dose formulation was administered intravenously via the jugular vein cannula. The 16.8 μmol/mL formulation was administered i.v. at a rate of 1 mL/Kg/min for 10 min.

[2] = Pharmacokinetics: plasma concentrations of prodrug and propofol after intravenous infusion (LC/MS/MS); details: for Mean concentration of prodrug and propofol in rat plasma after intravenous infusion administration / AUCinf / MRTinf / AUClast / CLp / Vdss: analyte = administered compound; for AUCinf / MRTinf: extrapolated to infinity; for AUClast: to last detected concentration; for CLp: total body clearance, dose/AUCinf; for Vdss: volume of distribution; for Mean Concentration of Propofol in Rat Plasma After Intravenous Administration: analyte = propofol released from the administered compound
Method: as §1, §2, §3
Approximately 0.20 mL blood was collected at each designated time point from carotid artery via a catheter. A total of 12 plasma samples were taken from each animal: 1 pre-dose; 2 during the dose (5 into the 10 min infusion and one just prior termination of the 10 min infusion) and 9 post-infusion at 2, 5, 15, 30 min and 1, 2, 3, 4, and 6 hr post-dose. All blood samples were transferred into plastic microcentrifuge tubes containing 5 μL of K2-EDTA (0.5M) as anti-coagulant and placed on ice until processed for plasma. Blood samples were processed for plasma by centrifugation at approximately 5° C. Plasma samples were then stored in 1.5 mL tubes, quick frozen over dry ice and kept at −70±10° C. until LC/MSMS analysis.
For each, a minimum of 6 standard point curve runs in duplicates, and minimum of 5 standards were back calculated to within ±20% of their nominal concentrations. The LLOQ of each test article in plasma was established and 6 QC samples were included in assay runs of samples to ensure assay performance.
Data Analysis. Plasma concentration versus time data was analyzed by non-compartmental approaches using the WinNonlin software program (version 5.2, Pharsight, Mountain View, Calif.) and the pharmacokinetic parameters T½, CL, Vss, AUC(0-t), AUC(0-inf), MRT, and graphs of plasma concentration versus time calculated for each.

[3] = Solubility determination in D2O by 1H NMR with DSS internal standard
Method: Thus the soapy-like solutions obtained were diluted until opalescent and diluted further until the opalescence visually disappeared.

[4] = time post-10 min i.v. infusion, 0.168 mmol/Kg
[5] = individual rats, post-10 min infusion, vehicle 10% Tween80

| SMILES | Mean concentration of prodrug and propofol in rat plasma after intravenous infusion administration ([2]; Time (h) 0.083) | Mean concentration of prodrug and propofol in rat plasma after intravenous infusion administration ([2]; Time (h) 0.167) | Mean concentration of prodrug and propofol in rat plasma after intravenous infusion administration ([2]; Time (h) 0.2) | Mean concentration of prodrug and propofol in rat plasma after intravenous infusion administration ([2]; Time (h) 0.25) | Mean concentration of prodrug and propofol in rat plasma after intravenous infusion administration ([2]; Time (h) 0.417) | Mean concentration of prodrug and propofol in rat plasma after intravenous infusion administration ([2]; Time (h) 0.667) | Mean concentration of prodrug and propofol in rat plasma after intravenous infusion administration ([2]; Time (h) 1.166) | Mean concentration of prodrug and propofol in rat plasma after intravenous infusion administration ([2]; Time (h) 2.166) | Mean concentration of prodrug and propofol in rat plasma after intravenous infusion administration ([2]; Time (h) 3.166) | Mean concentration of prodrug and propofol in rat plasma after intravenous infusion administration ([2]; Time (h) 4.166) | Mean concentration of prodrug and propofol in rat plasma after intravenous infusion administration ([2]; Time (h) 6.166) | AUCinf [2] | MRTinf [2] | AUClast [2] | CLp [2] | Vdss [2] | Mean Concentration of Propofol in Rat Plasma After Intravenous Administration ([2]; Time (h) 0) | Mean concentration of prodrug and propofol in rat plasma after intravenous infusion administration ([2]; Time (h) 0) | further results |
| --- | --- | --- | --- | --- | --- | --- | --- | --- | --- | --- | --- | --- | --- | --- | --- | --- | --- | --- | --- |
| CC(C)c1cccc(C(C)C)c1O [Propofol, 2,6-diisopropylphenol, reference compound] | 21.795 µM | 31.51 µM | 19.613 µM | 13.37 µM | 3.827 µM | 3.122 µM | 1.642 µM | 0.841 µM | 0.332 µM | 0.259 µM | 0.23 µM | 12.634 µM·h | 3.48 h | 10.576 µM·h | 264.7 mL/min/kg | 61.2 L/kg | BQL | – | Onset ([1]; anesthetic onset): < 30 s; Duration of action ([1]; in vivo): ~5 min; Pain on administration (share of uses) ([1]; standard lipid formulation): 80%; Rats soporous at (male Sprague Dawley rats; [4]): Rats soporous at about 4 min and; Rats recovered at (male Sprague Dawley rats; time post-10 min infusion, 5% cremophor vehicle): recovered at about 1.5 hr |
| CC(C)c1cccc(C(C)C)c1OC(=O)OCCO[C@@H]1O[C@H](CO)[C@@H](O)[C@H](O)[C@H]1O [Compound 9] | BQL | BQL | BQL | BQL | BQL | BQL | BQL | BQL | BQL | BQL | BQL | – | – | – | – | – | BQL | BQL | Rats recovered at (male Sprague Dawley rats; [4]): recovered at about 30 min; Pro-drug behaviour (release of propofol in vivo) ([2]; rats, releasing the propofol in a matter of minutes after infusion): very efficient pro-drugs; Relative solubility [3]: 8.6 |
| CC(C)c1cccc(C(C)C)c1OC(=O)NCCO[C@@H]1O[C@H](CO)[C@@H](O)[C@H](O)[C@H]1O [Compound 17] | 178.796 µM | 312.678 µM | 152.206 µM | 119.535 µM | 35.206 µM | 19.837 µM | 8.012 µM | 2.083 µM | 0.3907 µM | 0.0825 µM | 0.0106 µM | 71.764 µM·h | 0.277 h | 61.644 µM·h | 39.1 mL/min/kg | 0.657 L/kg | BQL | BQL | Rat died at infusion of (male Sprague Dawley rats; Additional Rat 4, during infusion, vehicle 10% Tween80): infusion of 8 min.; Rat died at (male Sprague Dawley rats; Rat 3, post-10 min infusion, vehicle 10% Tween80): 1.5 h; Overall outcome in rats (male Sprague Dawley rats; in its vehicle (10% tween80 cosolvent)): poor results; Rat died at (male Sprague Dawley rats; [5]): died at 15 min. and 40 min; Rat recovered (from breathlessness) at (male Sprague Dawley rats; [5]): recovered at 10 min.; died at; Cause of death (male Sprague Dawley rats; individual rats, vehicle 10% Tween80): blood hemolysis; also recorded: hematuria; Mean Concentration of Propofol in Rat Plasma After Intravenous Administration ([2]; Time (h) 2.166): BQL; Mean Concentration of Propofol in Rat Plasma After Intravenous Administration ([2]; Time (h) 3.166): BQL; Mean Concentration of Propofol in Rat Plasma After Intravenous Administration ([2]; Time (h) 4.166): BQL; Mean Concentration of Propofol in Rat Plasma After Intravenous Administration ([2]; Time (h) 6.166): BQL; Water solubility (qualitative) ([3]; reason for cosolvent): poor |
